Data as given in US20090209535A1, “6-ETHER/THIOETHER-PURINES AS TOPOISOMERASE II CATALYTIC INHIBITORS AND THEIR USE IN THERAPY” (TOPOTARGET A/S, priority 2005, published 2009).

Experiments:
[1] = target: T1, bisdioxopiperazine resistant Y165S mutant human topoisomerase II α (Homo sapiens, UniProt P11388, Y165S); type: biochemical; conditions: FIG. 2-B
T1 construct: made in house; host or cells: yeast (over-expressing yeast cells)
Protocol: Topoisomerase II catalytic activity (DNA strand passage activity) was measured by using a filter-based kDNA decatenation assay as described in Jensen et al., 2002. Briefly, 200 ng ^3H labelled kDNA isolated from C. fasciculata was incubated with increasing concentrations of drug in 20 μL reaction buffer containing 10 mM TRIS-HCl pH 7.7, 50 mM NaCl, 50 mM KCl, 5 mM MgCl2, 1 mM EDTA, 15 μg/mL BSA and 1 mM ATP using two units of purified wild-type or Y165S mutant topoisomerase II α for 20 minutes at 37° C. (where one unit of activity is defined as the amount of enzyme required for complete decatenation in the absence of drug). After addition of 5× stop buffer (5% Sarkosyl, 0.0025% bromophenol blue, and 50% glycerol), unprocessed kDNA network and decatenated DNA mini-circles were separated by filtering, and the amount of unprocessed kDNA in each reaction was determined by scintillation counting.
Inhibition of human topoisomerase II α DNA strand passage activity was assessed by decatenation of tritium-labelled Crithidia fasiculata kDNA using a filter-based assay to separate unprocessed kDNA network from decatenated mini-circles.

[2] = target: T2, topoisomerase II α (Homo sapiens, UniProt P11388); experiment: Topoisomerase II ATPase assay (coupled, NADH oxidation); type: biochemical; design: made in house; host or cells: yeast (over-expressing yeast cells)
Protocol: The reaction was monitored spectrophotometrically at 340 nm using a Bio-Tek EL808 Ultra Micro plate Reader connected to a computer with KC4 Software installed (Bio-Tek Instruments, U.S.). The change in absorbance was related to ADP production using A340^1M=6220 cm^−1. […] The rate of ATP hydrolysis, V, was determined from the linear part of the curve.
The steady-state rate of ATP hydrolysis was determined using a coupled ATPase assay as described herein. […] Error bars represent SEM of two independent experiments each performed in duplicate.
The steady-state rate of ATP hydrolysis was determined as described in for FIG. 3 and as described herein. In this analysis, the rate of ATP hydrolysis in the absence of drug was set to one in all experiments. Error bars represent SEM of 2 or 3 independent experiments each preformed in duplicate.

[3] = target: T2, topoisomerase II α; experiment: Band depletion assay (extractable topoisomerase II α, western blot); type: cell-based; design: OC—NYH cells were exposed to increasing concentrations of NSC 35866 for one hour and total proteins were extracted at 0.3 M NaCl; endogenous in cells; host or cells: human small cell lung cancer OC-NYH cells; conditions: 200 μM, OC—NYH cells, one hour
Protocol: Band depletion assay was performed essentially as described in Sehested et al., 1998. The amount of extractable topoisomerase II α was detected by the ECL detection method (Amersham, Buckinghamshire, United Kingdom). OC—NYH cells were exposed to increasing concentrations of NSC 35866 for one hour and total proteins were extracted at 0.3 M NaCl. For detection of topoisomerase II α, a polyclonal primary antibody (Bio Trend, Cologne, Germany) was used. Horseradish peroxidase linked anti-rabbit antibody (Amersham, Buckinghamshire, United Kingdom) was used as secondary antibody.
FIG. 10 describes the results of studies of the ability of NSC 35866 to trap human topoisomerase II α as a non-extractable complex on DNA in a dose dependent manner. The ability of NSC 35866 to stabilise topoisomerase II α as a non-extractable complex on DNA in human SCLC OC—NYH cells was assessed using the band depletion assay as described herein. The amounts of topoisomerase II α was visualised by western blotting using a topoisomerase II α specific primary antibody: Lane 1, no drug; Lane 2, 200 μM ICRF-187; Lane 3, 200 μM NSC 35866; Lane 4, 500 μM NSC 35866; Lane 5, 1000 μM NSC 35866. Band depletion of the topoisomerase II α isoform caused by NSC 35866 was detected in two independent experiments.

[4] = target: T2, topoisomerase II α; experiment: Topoisomerase II retention on DNA/streptavidin beads (salt-stable complex); type: biochemical; design: made in house; host or cells: yeast (over-expressing yeast cells)
Protocol: An assay capable of measuring non-covalent complexes of topoisomerase II on closed circular DNA was performed as described in Morris et al., 2000, with modifications. When performing six reactions, 60 μL M280 streptavidin coated bead (Dynal A/S, Oslo, Norway) slurry corresponding to 600 μg beads was transferred to a 1.5 mL tube that was then placed in a Dynal MPC-E (magnetic particle concentrator) rack (Dynal A/S, Oslo, Norway) for 1 to 2 minutes until the beads had settled on the tube wall. The beads were then washed twice in the DNA binding solution supplied with the kilobase binding kit (Dynal A/S, Oslo, Norway) by repeating this step. Finally, the beads were re-suspended in 250 μL DNA binding solution. A preparation of biotin labelled plasmid DNA containing a 5-kb super coiled circular DNA molecule carrying 8 successive PNA (Peptide Nucleic Acid) linked biotin labels at one known position (pGeneGrip biotin blank vector, Gene Therapy Systems Inc., San Diego, Calif., USA) was made by mixing 220 μL distilled water and 30 μL biotinylated DNA. After mixing the beads and the DNA preparation, the sample was left overnight at room temperature under gentle agitation to assure optimal formation of the DynaBeads DNA complex. Next, the complex was washed twice in 480 μL wash buffer (10 mM TRIS-HCL, pH 7.5, 2 M NaCl, 1 mM EDTA), once in distilled water, and once in topoisomerase reaction buffer (10 mM TRIS-HCl, pH 7.9, 50 mM NaCl, 50 mM KCl, 5 mM MgCl2, 1 mM EDTA, […] BSA). Then, the beads were re-suspended in 600 μL topoisomerase II buffer and divided into 6 tubes. 100 μL reactions containing plasmid DNA coated DynaBeads, topoisomerase II buffer, 2 μg purified human topoisomerase […] and drugs were incubated for 30 minutes at 37° C. When included, ATP was present at 1 mM. […]
FIG. 7 describes the results of studies of the ability of NSC 35866 to stabilise a salt-stable complex of human topoisomerase II α on covalently closed circular DNA. Retention of salt-stable (to 2 M KCl) complexes of human topoisomerase II α on circular DNA attached to magnetic beads via biotin-streptavidin linkage was determined by eluting retained protein by adding running buffer containing 4% SDS followed by heating to 100° C. for 10 minutes. The amount of human topoisomerase II α protein retained was then determined by running the samples on 7% SDS-PAGE gels followed by straining with GelCode Blue Strain Reagent (Pierce, Rockford, Ill., USA): Lane 1, no drug; Lane 2, 200 μM ICRF-187; Lane 3, 30 μM NSC 35866; Lane 4, 100 μM NSC 35866; Lane 5, 300 μM NSC 35866; Lane 6, 1000 μM NSC 35866; Lane K, 2 μg human topoisomerase II α. […]

T2 sequence (P11388 whole entry): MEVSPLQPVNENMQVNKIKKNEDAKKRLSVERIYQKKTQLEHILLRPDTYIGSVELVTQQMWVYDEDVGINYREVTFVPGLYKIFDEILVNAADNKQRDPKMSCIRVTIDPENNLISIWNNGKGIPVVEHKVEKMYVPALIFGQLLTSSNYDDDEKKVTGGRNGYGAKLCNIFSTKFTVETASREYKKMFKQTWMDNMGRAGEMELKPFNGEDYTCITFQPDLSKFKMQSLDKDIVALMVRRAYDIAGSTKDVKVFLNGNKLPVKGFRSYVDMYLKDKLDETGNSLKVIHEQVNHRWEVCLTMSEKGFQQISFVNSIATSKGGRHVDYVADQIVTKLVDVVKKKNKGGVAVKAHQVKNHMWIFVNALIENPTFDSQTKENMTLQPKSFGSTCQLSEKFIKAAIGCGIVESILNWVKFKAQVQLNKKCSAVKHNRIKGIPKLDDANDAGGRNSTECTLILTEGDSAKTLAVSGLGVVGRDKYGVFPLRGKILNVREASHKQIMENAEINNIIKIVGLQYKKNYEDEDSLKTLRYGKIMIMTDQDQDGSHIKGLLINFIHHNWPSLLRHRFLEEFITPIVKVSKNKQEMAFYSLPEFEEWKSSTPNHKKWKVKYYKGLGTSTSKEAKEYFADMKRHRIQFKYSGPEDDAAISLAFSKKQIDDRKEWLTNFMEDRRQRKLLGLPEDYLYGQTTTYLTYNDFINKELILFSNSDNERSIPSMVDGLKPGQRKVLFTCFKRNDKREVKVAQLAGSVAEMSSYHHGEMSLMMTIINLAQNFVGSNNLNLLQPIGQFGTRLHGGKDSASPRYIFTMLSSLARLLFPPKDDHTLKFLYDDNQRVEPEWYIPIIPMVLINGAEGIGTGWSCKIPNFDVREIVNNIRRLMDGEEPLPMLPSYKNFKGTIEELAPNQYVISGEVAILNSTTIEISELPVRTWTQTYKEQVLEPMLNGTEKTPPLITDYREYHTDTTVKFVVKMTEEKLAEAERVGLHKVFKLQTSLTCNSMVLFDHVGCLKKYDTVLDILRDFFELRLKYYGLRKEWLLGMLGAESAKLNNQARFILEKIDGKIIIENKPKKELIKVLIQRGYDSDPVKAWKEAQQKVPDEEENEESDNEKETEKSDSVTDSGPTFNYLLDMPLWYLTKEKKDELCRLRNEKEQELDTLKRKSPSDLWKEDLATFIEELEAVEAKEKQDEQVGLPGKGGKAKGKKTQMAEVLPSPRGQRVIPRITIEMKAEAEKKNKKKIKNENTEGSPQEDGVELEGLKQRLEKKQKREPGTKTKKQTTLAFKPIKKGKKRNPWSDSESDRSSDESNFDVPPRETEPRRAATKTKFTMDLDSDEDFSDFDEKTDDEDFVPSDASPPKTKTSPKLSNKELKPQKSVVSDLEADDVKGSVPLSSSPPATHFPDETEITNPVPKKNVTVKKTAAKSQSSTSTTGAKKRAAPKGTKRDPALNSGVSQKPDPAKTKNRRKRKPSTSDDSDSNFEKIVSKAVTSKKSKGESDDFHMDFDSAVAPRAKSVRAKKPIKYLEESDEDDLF
T1 sequence (P11388 whole entry Y165S): as the sequence (P11388 whole entry) above, with Y165S counted along it

SMILES: C[C@@H](CN1CC(=O)NC(=O)C1)N1CC(=O)NC(=O)C1 [ICRF-187, (+)-1,2-bis(3,5-dioxopiperazinyl-1-yl)propane, reference compound]
- inhibition of catalytic activity of the Y165S protein, in words [1]: incapable of inhibiting the catalytic activity of the Y165S protein
- ATPase activity relative to that seen in the absence of drug ([2]; 100 μM, in the absence of DNA): 75%
- IC50 ([2]; in the presence of DNA (DNA-stimulated), read-out: IC50, inhibition of ATPase activity): 1000 nM
- effect on amount of extractable topoisomerase II α, in words [3]: clearly reduced
- retention of topoisomerase II on DNA beads after 2 M KCl wash, in words ([4]; 200 μM, with ATP): strongly induced the retention of topoisomerase II to the beads
- retention of topoisomerase II on DNA beads, in words ([4]; in the absence of ATP): strongly depended on ATP
